Measurements published in the RepoRT retention time repository (doi:10.1021/acs.analchem.2c02893).

assay: RP, Thermo Scientific Acclaim RSLC 120 C18, 100 × 2.1 mm, 2.2 µm, 30 °C, 0.2 mL/min, estimated dead time 1.1 min; A: 90% water + 10% methanol + 0.01% formic acid + 5 mM ammonium formate, pH 3.61; B: methanol + 0.01% formic acid + 5 mM ammonium formate, pH 3.61; gradient (min/%B) 0/1 1/1 2/39 13/99.9 15/99.9 15.1/1 20.1/1; settings: stereoisomer not certain

`CN(C)S(=O)(=O)c1ccc2c(c1)N(CCCN1CCC(CCO)CC1)c1ccccc1S2` [Pipotiazine] and `CC1CCCC(C)N1NC(=O)c1ccc(Cl)c(S(N)(=O)=O)c1` (stereo unspecified) [Clopamide] are within 1.5-fold of each other in LC retention time: 7.39 min for the first, 6.01 min for the second.

`CN(C)C(=O)Nc1ccc(-n2nc(C(C)(C)C)oc2=O)c(Cl)c1` [Dimefuron] and `CC(C)Oc1cc(-n2nc(C(C)(C)C)oc2=O)c(Cl)cc1Cl` [Oxadiazon] are within 1.5-fold of each other in LC retention time: 8.76 min for the first, 12.3 min for the second.

`COC(=O)c1cccc(C)c1S(=O)(=O)NC(=O)Nc1nc(OCC(F)(F)F)nc(N(C)C)n1` [Triflusulfuron-methyl] and `CCc1cccc(CC)c1N(COC)C(=O)CCl` [Alachlor] are within 1.5-fold of each other in LC retention time: 9.22 min for the first, 10.3 min for the second.

`NC(=O)c1ccccc1O` [Salicylamide] and `CCOC(=O)c1ccc(N)cc1` [Benzocaine] are within 1.5-fold of each other in LC retention time: 4.76 min for the first, 6.27 min for the second.

`N#CCCCCn1cc(C(=O)c2cccc3ccccc23)c2ccccc21` [AM-2232] and `O=C(O)Cc1cn(-c2ccccc2)nc1-c1ccc(Cl)cc1` [Lonazolac] are within 1.5-fold of each other in LC retention time: 9.69 min for the first, 10.4 min for the second.

Compared with `CCCCOCN(C(=O)CCl)c1c(CC)cccc1CC` [Butachlor], `CCN(CC)CCNC(=O)c1cc(Cl)c(N)cc1OC` [Metoclopramide] is 2.8-fold lower in LC retention time: 12.3 min for the first, 4.36 min for the second.

First: CC(C)CC(CN)CC(=O)O (stereo unspecified) [Pregabalin]
Second: CCOC(=O)CC(SP(=O)(OC)OC)C(=O)OCC (stereo unspecified) [Malaoxon]
The LC retention time of the first is 1.8-fold lower: 3.88 min for the first, 7.01 min for the second.

First: CNCCC(Oc1ccccc1C)c1ccccc1 (stereo unspecified) [Atomoxetine]
Second: CN(C)CCC(c1ccccc1)c1ccccn1 (stereo unspecified) [Pheniramine]
The LC retention time of the first is 1.5-fold higher: 7.63 min for the first, 4.98 min for the second.

`Cc1cc(=O)n(-c2ccccc2)n1C` [Phenazone] and `Nc1ccc2c(c1)C(c1ccccc1Cl)=NCC(=O)N2` [Clonazepam- 7-Amino] are within 1.5-fold of each other in LC retention time: 4.63 min for the first, 4.86 min for the second.

Compared with `Nc1c2c(nc3ccccc13)CCCC2` [Tacrine], `O=C1Nc2ccc(Br)cc2C(c2ccccc2Cl)=NC1O` (stereo unspecified) [Phenazepam- 3-Hydroxy] is 1.7-fold higher in LC retention time: 4.77 min for the first, 8.34 min for the second.

First: CN1CCC23c4c5ccc(OC6OC(C(=O)O)C(O)C(O)C6O)c4OC2C(O)C=CC3C1C5 [Morphine-3-beta-D-glucuronide]
Second: O=c1ccc2cc(OC3OC(CO)C(O)C(O)C3O)c(O)cc2o1 (stereo unspecified) [Esculin]
The LC retention time of the first is 2.3-fold lower: 1.63 min for the first, 3.69 min for the second.

`COC1(C)CC(c2ccccc2)c2c(c3ccccc3oc2=O)O1` (stereo unspecified) [Pyranocoumarin] and `CC(C)OC(=O)C(C)N(C(=O)c1ccccc1)c1ccc(F)c(Cl)c1` (stereo unspecified) [Flamprop-isopropyl] are within 1.5-fold of each other in LC retention time: 11.1 min for the first, 10.8 min for the second.

`CCOP(=S)(OCC)N1C(=O)c2ccccc2C1=O` [Ditalimfos] and `CCOP(=O)(NC(C)C)Oc1ccc(SC)c(C)c1` (stereo unspecified) [Fenamiphos] are within 1.5-fold of each other in LC retention time: 10.2 min for the first, 10.4 min for the second.

`O=C(Nc1ccc(Cl)cc1)Nc1ccc(Cl)c(Cl)c1` [Triclocarban] and `Cc1nnc2n1-c1ccc(Cl)cc1C(c1ccccc1Cl)=NC2` [Triazolam] are within 1.5-fold of each other in LC retention time: 12 min for the first, 8.05 min for the second.

`CC(C)OC(=O)c1cc(C(=O)OC(C)C)cc([N+](=O)[O-])c1` [Nitrothal-isopropyl] and `CC(C)CCOc1ccc(NC(=S)Nc2ccc(OCCC(C)C)cc2)cc1` [Tiocarlide] are within 1.5-fold of each other in LC retention time: 12 min for the first, 13 min for the second.

`CC(O)C1C(=O)N2C(C(=O)O)=C(SC3CNC(C(=O)N(C)C)C3)C(C)C12` (stereo unspecified) [Meropenem] and `CCCCC(CC)CN1C(=O)C2C3C=CC(C3)C2C1=O` (stereo unspecified) [MGK-264] are within 1.5-fold of each other in LC retention time: 10.6 min for the first, 11.6 min for the second.

Going from `CCOC(=O)C1=CC(OC(CC)CC)C(NC(C)=O)C(N)C1` (stereo unspecified) [Oseltamivir] to `NC(=O)c1ncn(C2OC(CO)C(O)C2O)n1` (stereo unspecified) [Ribavirin], the LC retention time falls from 6.76 min to 1.36 min (5-fold).

`Cc1nnc(NS(=O)(=O)c2ccc(N)cc2)s1` [Sulfamethizole] and `O=C(O)CCC(=O)c1ccc(F)cc1` [4-Fluorobenzoylpropionic acid] are within 1.5-fold of each other in LC retention time: 4.21 min for the first, 6.09 min for the second.

First: CCC(C)C1OC2(CCC1C)CC1CC(CC=C(C)C(OC3CC(OC)C(OC4CC(OC)C(O)C(C)O4)C(C)O3)C(C)C=CC=C3COC4C(O)C(C)=CC(C(=O)O1)C34O)O2 (stereo unspecified) [Ivermectin B1a]
Second: CC1CN(C2CCC(C#N)(c3ccc(F)cc3)CC2)CCC1(C(=O)O)c1ccccc1 (stereo unspecified) [Levocabastine]
The LC retention time of the first is 2.1-fold higher: 14.4 min for the first, 6.95 min for the second.

First: O=C1C(Cl)C(CCl)CN1c1cccc(C(F)(F)F)c1 (stereo unspecified) [Flurochloridone]
Second: CC(C)(ON=C(C(=O)NC1C(=O)N2C(C(=O)[O-])=C(C[n+]3ccccc3)CSC12)c1csc(N)n1)C(=O)O (stereo unspecified) [Ceftazidime]
The LC retention time of the first is 2.9-fold higher: 9.84 min for the first, 3.38 min for the second.

`NC(N)=NC(=O)c1nc(Cl)c(N)nc1N` [Amiloride] gave an LC retention time of 3.68 min.
